The numbers were not newly measured in patent publication US20250049818A1, “PRENATAL SUPPLEMENT COMPOSITIONS FOR INCREASING BREASTMILK MICRONUTRIENT LEVELS” (SOCIÉTÉ DES PRODUITS NESTLÉ S.A., priority 2021, published 2025), which cites them from elsewhere.

The structures appear in SMILES notation. Like-named read-outs stand apart in the source and are kept apart here.

For series [1] the following is noted: daily supplementation during pregnancy only, zinc 30 mg.
The conditions of series [2]: children of developing world, meta-analysis.
The conditions of series [3]: 10 mg/day for 120 days, Indian infants aged 6-35 months.
For series [4] the following is noted: 5 mg/day, Indian infants small for gestational age.

As to `C=C1CC[C@H](O)C/C1=C/C=C1\CCC[C@]2(C)[C@@H]([C@H](C)CCCC(C)C)CC[C@@H]12` [vitamin D3, cholecalciferol], the “mean vitamin D activity (VDA) of human milk” value is listed as 43 IU/L (two months post-partum, 1,000 IU group); 58 IU/L (two months post-partum, 2,000 IU group); 51 IU/L (two weeks post-partum, 1,000 IU daily oral, 27-36 weeks of gestation); 74 IU/L (two weeks post-partum, 2,000 IU daily oral, 27-36 weeks of gestation).

Regarding `[Zn]` [zinc], the “human milk zinc concentration” value is reported as 49.3 (31.3-62.1) μmol/L in series [1] (1 month postpartum) and 15.3 (11.8-27.2) μmol/L in series [1] (6 months postpartum). Also, in series [2], the reduced diarrhoea is reported as 18%. Also, in series [3], the “reduction in incidence of acute lower respiratory infections” value is 45%. For the same compound, the reduction in mortality in series [4] is on record as 68%.
